Data on nine compounds can be found in article PMC9409992, “Immunosuppressive Cytochalasins from the Mangrove Endophytic Fungus Phomopsis asparagi DHS-48” (Marine Drugs, 2022).

Data set [1] has as its system ConA-induced T murine splenic lymphocytes. The data set can be described thus: ConA-induced T-cell (splenic lymphocyte) proliferation, CCK-8. As to conditions: Mus musculus, 48 h, read-out: IC50 ConA-Induced T-Cell Proliferation. Format: cell-based, BALB/c mice. The method, then: (§1) The isolated compounds (1–8) were evaluated for their immunosuppressive activities against the proliferation of ConA-induced T and LPS-induced B murine splenic lymphocytes, according to previously described protocols. […] The cytotoxicity of immunosuppressive Compounds 2 and 4–6 was tested in murine splenocyte cultures for 72 h using the tetrazolium salt-based CCK-8 assay. […] Thus, we selected this particular cytochalasin for the mechanism of action studies.
(§2) Spleen cells were collected from BALB/c mice under aseptic conditions, plated in a 96-well plate at a density of 1.5 × 10^6 cells/well and activated by Con A (5 μg/mL) or LPS (10 μg/mL) in the presence of various concentrations of compounds or cyclosporine A (CsA) at 37 °C and 5% CO2 for 48 h. Then, 20 μL CCK-8 was added to each well, 4 h before the end of the incubation. Absorbance at OD450 was measured on an ELISA reader, and the IC50 value was calculated from the correlation curve between the compound concentration and the OD450.

Data set [2] concerns LPS-induced B murine splenic lymphocytes. The data set can be described thus: LPS-induced B-cell (splenic lymphocyte) proliferation, CCK-8. Format: cell-based, BALB/c mice. As to conditions: Mus musculus, 48 h, read-out: IC50 LPS-Induced B-Cell Proliferation. The method, then: as §1, §2
The next data set concerns NFAT1 translocation. Kind of data set: Immunofluorescence of NFAT1 nuclear translocation in ConA-stimulated splenocytes. Type of data set: cell-based, BALB/c mice. As to conditions: Con A 5 μg/mL, 48 h. The method, then: (§3) The effect of 2 on ConA-stimulated NFAT1 and NFAT-P expression was determined by Western blotting. […] In contrast, in the ConA-stimulated cells in the absence of 2, the dephosphorylated form of NFAT1 was detected, as well as the phosphorylated form. […] After 48 h of stimulation with 5 μg/mL Con A, the fluorescent NFAT1 translocated to the nucleus. […] In addition, 2 formed hydrophobic interactions with residues ILE-436, ILE-474, ARG-477, VAL-490, and VAL-498 and intermolecular interactions with residues THR-126, GLN-127, ASP-313, and PRO-340. Therefore, the immunosuppressive activity of 2 is possibly, at least in part, mediated via CaN/NFAT signaling pathway-regulated Con A-stimulated activation of splenocytes (Figure 7), highlighting its potential for use as an effective noncytotoxic natural immunosuppressant.
Splenocytes were seeded in a 24-well plate at a density of 5 × 10^6 cells/well, incubated with various concentrations of Compound 2 or CsA, and then activated by culturing with Con A (5 μg/mL) for 48 h. After treatment, the cells were fixed with 4% paraformaldehyde for 30 min, permeabilized in 0.5% Triton X-100 for 15 min, blocked with 5% BSA for 1 h, and then incubated overnight in the respective primary antibody; NFAT1 (D43B1) XP® Rabbit antibody was used at a 1:100 dilution in PBS. The corresponding fluorescent anti-rabbit IgG (H+L) secondary antibody was added for 1 h. […]

In the next data set the target is calcineurin (CN) (Homo sapiens, UniProt P63098+Q08209). The data set can be described thus: CN phosphatase assay (p-NPP substrate, spectrophotometric). Type of data set: biochemical. As to conditions: 20 mM p-NPP substrate, pH 7.4; read-out: IC50 calcineurin (CN) inhibition. The protocol:
A spectrophotometric assay was used to determine the activities of CN with 20 mM p-nitrophenyl phosphate (p-NPP) as the substrate in 1 mM CaCl2, 0.5 mM MnCl2, 2 mM CaM, 2 mM CNB, 1 mM DTT, 0.1 mg/mL bovine serum albumin (BSA), and 50 mM Tris-HCl (pH 7.4) at 4 °C. The reaction was initiated by the addition of CNA, various concentrations of compounds (6.25, 12.5, 25, 50 or 100 μM) were added, and the solution was preincubated for 10 min at 4 °C. The OD410 value was measured, and the inhibitory concentration (IC50) was calculated. DMSO (2%) was used as a vehicle control. CsA was used as a positive control.

In the next data set the test system is IL-2 mRNA. Kind of data set: IL-2 mRNA expression by real-time quantitative PCR in ConA-stimulated splenocytes. Format: cell-based, BALB/c mice. As to conditions: q-PCR, 48 h. The protocol:
as §3
The obtained total RNA (2 µg) was used for cDNA synthesis with a Servicebio®RT First Strand cDNA Synthesis Kit with random primers, according to the manufacturer’s instructions. qPCR was performed ith SYBR Green qPCR Master Mix (High ROX) using ABI StepOne Plus Real-time Detection System and β-actin as internal control. […] The expression levels of genes were normalized to the expression of β-actin mRNA and analyzed using the delta-delta CT method (2^−ΔΔCT).

A short description of data set [3]: Cytotoxicity / cell viability in normal splenocytes, CCK-8, 72 h. Type of data set: cell-based, BALB/c mice. As to conditions: BALB/c, mouse, mean ± SD (n = 7), read-out: Cytotoxicity IC50, murine splenocytes. The method, then: as §1
(§4) Cell viability was evaluated using the CCK-8 method. Spleen cells were plated in a 96-well plate at a density of 1.5 × 10^6 cells/well. Then, the cells were incubated with various concentrations of compounds or 0.1% DMSO at 37 °C and 5% CO2 for 72 h. Proliferation was measured using the CCK-8 assay, as described above. Cyclosporin A (CsA) and cytochalasin D were used as positive controls.

A further data set concerns NFAT1 dephosphorylation. The data set can be described thus: Western blot of ConA-stimulated NFAT1 / NFAT-P in splenocytes. Type of data set: cell-based, BALB/c mice. As to conditions: 50 μM. The protocol:
as §3
Splenocytes were washed with PBS and lysed in PMSF lysate. After centrifugation at 12,000 rpm for 5 min, the protein concentration was determined using a BSA Protein Assay Kit. Protein lysates were separated using 10% sodium dodecyl sulfate–polyacrylamide gel electrophoresis (SDS–PAGE) and transferred to polyvinylidene difluoride (PVDF) membranes. After blocking, the membranes were incubated overnight with the respective primary antibodies against NFAT1, NFAT-P, and β-actin in 5% BSA, and the secondary antibody was horseradish peroxidase (HRP)-conjugated goat anti-rabbit IgG. […]
On the technique in general: In western blotting, separated proteins are transferred to a membrane and probed.

The subject of another data set is IL-2. The data set can be described thus: IL-2 ELISA of culture supernatants of ConA-stimulated splenocytes. Format: cell-based, BALB/c mice. The protocol: as §3
Splenocytes were treated as described in the RT–qPCR section, and then the IL-2 levels in the obtained culture supernatants were measured using an enzyme-linked immunosorbent assay (ELISA) kit, according to the manufacturer’s instructions. Cytokine standard curves were used to calculate the amount of IL-2, and the absorbance of each well was read at OD450 using an ELISA reader.
In general terms: ELISA stands for enzyme-linked immunosorbent assay.

A further data set concerns murine splenocytes. The data set can be described thus: Cytotoxicity / cell viability in normal splenocytes, CCK-8, 72 h. As to conditions: mean ± SD (n = 7). Format: cell-based, BALB/c mice. The protocol: as §1, §4

Read-outs that look alike come from different tables or passages of the source.

Chain of calcineurin (CN) (P63098 whole entry, other chains not shown): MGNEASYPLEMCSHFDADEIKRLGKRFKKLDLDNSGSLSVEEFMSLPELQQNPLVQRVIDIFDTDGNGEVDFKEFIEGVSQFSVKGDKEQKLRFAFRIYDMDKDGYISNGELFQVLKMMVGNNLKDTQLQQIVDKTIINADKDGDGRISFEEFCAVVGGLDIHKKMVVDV

Regarding `C=C1C(C)C2C(Cc3ccccc3)NC(=O)C23C(O)C2C=C(C)CC(C)CC4OC1C3C42` (stereo not drawn) [Compound 1, Phomoparagin A], the IC50 in data set [1] and in [2] was above 200 µM throughout.
For the compound `C=C1C(C)C2C(Cc3ccccc3)NC(=O)C23C(OC(C)=O)C2C=C(C)CC(C)CC(O)C2C3C1O` (stereo not drawn) [Compound 2, Phomoparagin B], the “Effect on Con A-stimulated translocation of NFAT1 from cytoplasm to nucleus” value with NFAT1 translocation is listed as “blocked the Con A-stimulated translocation of NFAT1 from the cytoplasm to the nucleus in a dose-dependent manner”. The figures for the IC50 (in data set [1]; in data set [2]; at calcineurin (CN)) were 21.6 ± 1.7 µM, 78.5 ± 1.3 µM and 17.9 ± 0.4 µM, respectively. The “Transcription level of Con A-stimulated IL-2 mRNA” value in the data set on IL-2 mRNA is on record as “decreased with increasing concentrations of 2”. Also, in data set [3], the IC50 at 72 h amounted to 111.7 ± 1.1 µM. The “Effect on ConA-stimulated dephosphorylation of NFAT” value with NFAT1 dephosphorylation is on record as “strongly inhibited the dephosphorylation of NFAT”. Moreover, the “IL-2 protein level (secretion)” value with IL-2 is “confirmed the effects of 2 at the IL-2 protein level”.
In the case of `C=C1C(C)C2C(Cc3ccccc3)NC(=O)C23C=C2C=C(C)CC(C)CC(O)C2C3C1O` (stereo not drawn) [Compound 3, Phomoparagin C], the IC50 in data set [1] and in data set [2] was above 200 µM each time.
In the case of `C=C1C(C)C2C(Cc3ccccc3)NC(=O)C23C(O)C2C=C(C)CC(C)CC(O)C2C3C1O` (stereo not drawn) [Compound 4, phomopchalasin A], the IC50 in data set [1] was 32.8 ± 2.4 µM; in data set [2] it was 145 ± 2.2 µM. Moreover, in data set [3], the IC50 at 72 h came out at 373.7 ± 3.3 µM.
Taken in the same sequence, the figures for `C=C1C(C)C2C(Cc3ccccc3)NC(=O)C23C(O)C(O)C2C(C)=CC(C)CC4OC1C3C42` (stereo not drawn) [Compound 5, phomopchalasin B] were 31.2 ± 2.5 µM, 154.4 ± 0.4 µM and 84.4 ± 0.3 µM.
For `C=C1C(C)C2C(Cc3ccccc3)NC(=O)C23C(OC(C)=O)C=CC(C)(O)CC(C)CC=CC3C1O` (stereo not drawn) [Compound 6, cytochalasin H], the IC50 is 11.2 ± 0.3 µM in [1], 103 ± 1.1 µM in data set [2] and 42.2 ± 1.7 µM with murine splenocytes. Moreover, the IC50 at 72 h in data set [3] came to 42.2 ± 1.7 µM.
Regarding `C=C1C(C)C2C(Cc3ccccc3)NC(=O)C23C(O)C=CC(C)(O)CC(C)CC=CC3C1O` (stereo not drawn) [Compound 7, cytochalasin J], the IC50 was above 200 µM in data set [1] (Con A 5 μg/mL, CCK-8, mean ± SD, three experiments) and above 200 µM in data set [2] (LPS 10 μg/mL, CCK-8, mean ± SD, three experiments).
Regarding `C=C1C(C)C2C(Cc3ccccc3)NC(=O)C23C(=O)C=CC(C)(O)CC(C)CC=CC3C1O` (stereo not drawn) [Compound 8, fragiformin B], the IC50 in data set [1] and in [2] was above 200 µM in each case.
With `C=C1[C@@H](C)[C@H]2[C@H](Cc3ccccc3)NC(=O)[C@]23[C@H](OC(C)=O)/C=C/[C@@](C)(O)C(=O)[C@@H](C)C/C=C/[C@H]3[C@@H]1O` [Cytochalasin D, cytochalasin D, reference compound], the IC50 in data set [3] was found to be 1 µM.
